Active and inactive are the calls of the source. The calls are words filed in the database; no cut-off is given here.
What was measured:
[1] = molecular target: T1, Hepatic sodium/bile acid cotransporter (Mus musculus, UniProt O08705); assay: Inhibition of mouse NTCP-mediated NQL-064 uptake expressed in human HepG2 cells; type: cell-based
T1 sequence (O08705 whole entry): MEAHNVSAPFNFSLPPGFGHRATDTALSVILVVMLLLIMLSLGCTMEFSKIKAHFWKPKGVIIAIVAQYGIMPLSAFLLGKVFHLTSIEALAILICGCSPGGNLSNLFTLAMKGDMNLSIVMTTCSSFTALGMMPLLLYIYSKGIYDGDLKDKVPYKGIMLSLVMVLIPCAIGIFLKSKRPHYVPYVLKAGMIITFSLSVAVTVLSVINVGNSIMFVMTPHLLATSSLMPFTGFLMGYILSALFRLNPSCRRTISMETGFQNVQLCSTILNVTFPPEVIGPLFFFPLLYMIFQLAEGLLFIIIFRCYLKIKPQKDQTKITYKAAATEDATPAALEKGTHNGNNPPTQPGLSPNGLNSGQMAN

HepG2 [2] = assay: Cytotoxicity against human HepG2 cells expressing NTCP assessed as reduction in cell viability at 10 uM after 48 hrs by alamar blue assay; type: cell-based; settings: hepg2, 48 h
HepG2 [3] = assay: Inhibition of tree shrew NTCP-mediated NQ-064 uptake expressed in human HepG2 cells; type: cell-based; settings: Scandentia
Hepatitis B virus [4] = assay: Antiviral activity against HBV infected in human HepG2-NTCP cells assessed as reduction in intracellular accumulation of HBsAg at 1 uM by immunostaining based fluorescence microscopic analysis; type: functional, organism-based
[5] = molecular target: Hepatic sodium/bile acid cotransporter (Homo sapiens, UniProt Q14973); assay: Inhibition of human NTCP residues (157 to 165) replaced with monkey NTCP -mediated [3H]-TCA uptake expressed in human HepG2 cells; type: cell-based
[6] = molecular target: T2, Hepatic sodium/bile acid cotransporter (Homo sapiens, UniProt Q14973); assay: Inhibition of human NTCP-mediated NQL-064 uptake expressed in human HepG2 cells; type: cell-based
T2 sequence (Q14973 whole entry): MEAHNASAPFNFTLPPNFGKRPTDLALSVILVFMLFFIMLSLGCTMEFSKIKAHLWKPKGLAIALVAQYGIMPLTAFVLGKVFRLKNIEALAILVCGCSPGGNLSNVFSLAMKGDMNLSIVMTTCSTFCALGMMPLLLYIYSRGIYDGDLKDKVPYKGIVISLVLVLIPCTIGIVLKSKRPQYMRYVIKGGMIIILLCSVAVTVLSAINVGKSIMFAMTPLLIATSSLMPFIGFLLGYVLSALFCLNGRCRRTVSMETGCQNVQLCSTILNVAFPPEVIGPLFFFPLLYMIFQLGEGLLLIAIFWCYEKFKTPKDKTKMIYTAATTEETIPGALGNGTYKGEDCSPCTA

[7] = Inhibition of monkey NTCP-mediated [3H]-TCA uptake expressed in human HepG2 cells; type: cell-based; settings: Macaca mulatta
HepG2 [8] = assay: Inhibition of monkey NTCP-mediated NQL-064 uptake expressed in human HepG2 cells; type: cell-based; settings: Macaca mulatta
[9] = molecular target: T3, Ileal sodium/bile acid cotransporter (Homo sapiens, UniProt Q12908); assay: Inhibition of human ASBT-mediated [3H]-TCA uptake expressed in human HepG2 cells at 2 uM; type: cell-based; settings: hepg2, 2 µM
T3 sequence (Q12908 whole entry): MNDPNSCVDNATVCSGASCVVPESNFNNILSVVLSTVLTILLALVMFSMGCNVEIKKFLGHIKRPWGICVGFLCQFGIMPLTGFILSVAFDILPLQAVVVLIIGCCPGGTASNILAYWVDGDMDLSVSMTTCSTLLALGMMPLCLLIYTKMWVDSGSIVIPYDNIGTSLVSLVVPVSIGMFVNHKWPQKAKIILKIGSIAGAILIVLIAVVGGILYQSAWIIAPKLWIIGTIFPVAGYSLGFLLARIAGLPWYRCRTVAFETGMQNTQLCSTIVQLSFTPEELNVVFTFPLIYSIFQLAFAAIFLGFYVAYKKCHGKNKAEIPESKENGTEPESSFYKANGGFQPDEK

[10] = molecular target: T2, Hepatic sodium/bile acid cotransporter; assay: Inhibition of human NTCP-mediated [3H]-TCA uptake expressed in human HepG2 cells at 0.4 to 10 uM incubated for 10 mins by liquid scintillation counter analysis; type: cell-based; settings: hepg2, 10 min, dose 0.4-10 µM
[11] = molecular target: T2, Hepatic sodium/bile acid cotransporter; assay: Inhibition of human NTCP-mediated [3H]-TCA uptake expressed in human HepG2 cells pretreated for 2 hrs followed by [3H]-TCA addition in absence of FBS; type: cell-based
Hepatitis B virus [12] = assay: Antiviral activity against HBV infected in human HepG2-NTCP cells assessed as reduction in HBeAg secretion at 31.25 to 2000 nM incubated for 24 hrs followed by replacement with fresh medium and measured at day 5 post infection by ELISA; type: functional, organism-based; settings: dose 31.25-2000 nM

Structure (SMILES)	inhibition (INH) [1]	Activity (HepG2 [2])	inhibition (HepG2 [3])	Activity (Hepatitis B virus [4])	IC50 [5] [µM]	inhibition (INH) [6]	IC50 [7] [µM]	inhibition (HepG2 [8])	inhibition (INH) [9]	inhibition (INH) [10]	IC50 [11] [µM]	Activity (Hepatitis B virus [12])
C[C@H](CCC(=O)NCCS(=O)(=O)O)[C@H]1CC[C@H]2[C@@H]3[C@@H](O)C[C@@H]4C[C@H](NC(=O)CCCC(=O)N[C@@H]5CC[C@@]6(C)[C@@H](C5)C[C@H](O)[C@@H]5[C@@H]6CC[C@]6(C)[C@@H]([C@H](C)CCC(=O)NCCS(=O)(=O)O)CC[C@@H]56)CC[C@]4(C)[C@H]3CC[C@]12C	Not Active	Non-Toxic	inactive	Active	8.35	Active	4.77	inactive	Not Active	–	–	–
C[C@H](CCC(=O)O[C@@H]1CC[C@@]2(C)[C@@H](C1)C[C@H](O)[C@@H]1[C@@H]2CC[C@]2(C)[C@@H]([C@H](C)CCC(=O)NCCS(=O)(=O)O)CC[C@@H]12)[C@H]1CC[C@H]2[C@@H]3[C@@H](O)C[C@@H]4C[C@H](O)CC[C@]4(C)[C@H]3CC[C@]12C	–	Non-Toxic	–	Active	–	–	–	–	Not Active	Active	0.0362	Active

From ChEMBL document CHEMBL4834431, “Design of Dimeric Bile Acid Derivatives as Potent and Selective Human NTCP Inhibitors” (J Med Chem, 2021)
